From patent publication US9695155B2, “Herbicidal substituted pyrimidinyloxy benzene compounds” (E. I. DU PONT DE NEMOURS AND COMPANY, priority 2013, dated 2017)

How the values were obtained:
canarygrass = assay: Test C postemergence; type: in vivo, Phalaris minor; details: for Plant response rating (0 to 100), Canarygrass: postemergence; for Plant response rating, Canarygrass: Postemergence, scale 0 to 100 (0 no effect, 100 complete control)
From the text: (§1) Seeds of plant species selected from blackgrass (Alopecurus myosuroides), Italian ryegrass (Lolium multiflorum), wheat, winter (winter wheat, Triticum aestivum), galium (catchweed bedstraw, Galium aparine), corn (Zea mays), large (Lg) crabgrass (Digitaria sanguinalis), giant foxtail (Setaria faberii), johnsongrass (Sorghum halepense), lambsquarters (Chenopodium album), morningglory (Ipomoea coccinea), yellow nutsedge (Cyperus esculentus), pigweed (Amaranthus retroflexus), ragweed (common ragweed, Ambrosia elatior), soybean (Glycine max), barnyardgrass (Echinochloa crus-galli), oilseed rape (Brassica napus), waterhemp (common waterhemp, Amaranthus rudis), kochia (Kochia scoparia), wild oat (Avena fatua), surinam grass (Brachiaria decumbens), foxtail, green (green foxtail, Setaria viridis), goosegrass (Eleusine indica), bromegrass, downy (downy bromegrass, Bromus tectorum), nightshade (eastern black nightshade, Solanum ptycanthum), cocklebur (common cocklebur, Xanthium strumarium), cupgrass, woolly (woolly cupgrass, Eriochloa villosa), bermudagrass (Cynodon dactylon), sunflower, (common oilseed sunflower, Helianthus annuus), Russian thistle (Salsola kali), and velvetleaf (Abutilon theophrasti) were planted into a blend of loam soil and sand and treated preemergence with test chemicals formulated in a non-phytotoxic solvent mixture which included a surfactant.
(§2) At the same time, plants selected from these crop and weed species and also barley, winter (winter barley, Hordeum vulgare), windgrass (Apera spica-venti), chickweed (common chickweed, Stellaria media), deadnettle (henbit deadnettle, Lamium amplexicaule), and canarygrass (littleseed canarygrass, Phalaris minor) were planted in pots containing Redi-Earth® planting medium (Scotts Company, 14111 Scottslawn Road, Marysville, Ohio 43041) comprising spaghnum peat moss, vermiculite, wetting agent and starter nutrients and treated with postemergence applications of test chemicals formulated in the same manner. Plants ranged in height from 2 to 18 cm (1- to 4-leaf stage) for postemergence treatments. Treated plants and controls were maintained in a greenhouse for 13 to 15 days, after which time all species were compared to controls and visually evaluated. Plant response ratings, summarized in Table C, are based on a scale of 0 to 100 where 0 is no effect and 100 is complete control. A dash (-) response means no test result.

surinam grass [1] = assay: Test C preemergence; type: in vivo, Brachiaria decumbens; details: for Surinam Grass plant response rating: preemergence, scale 0 (no effect) to 100 (complete control); for Plant response rating, Surinam Grass: Preemergence, 31 g ai/ha, scale 0 to 100, 0 no effect, 100 complete control
From the text: as §1, §2

cocklebur = assay: Test C postemergence; type: in vivo, Xanthium strumarium; details: for Plant response rating (0 to 100), Cocklebur: postemergence; for Plant response rating, Cocklebur: Postemergence, scale 0 to 100 (0 no effect, 100 complete control)
From the text: as §1, §2

bromegrass, downy = assay: Test C postemergence; type: in vivo, Bromus tectorum; details: for Plant response rating (0 to 100), Bromegrass, Downy: postemergence; for Plant response rating, Bromegrass, Downy: Postemergence, scale 0 to 100 (0 no effect, 100 complete control)
From the text: as §1, §2

kochia = assay: Test C preemergence; type: in vivo, Kochia scoparia; details: for Kochia plant response rating: preemergence, scale 0 (no effect) to 100 (complete control); for Plant response rating, Kochia: Preemergence, 31 g ai/ha, scale 0 to 100, 0 no effect, 100 complete control
From the text: as §1, §2

monochoria = assay: Test G flood (paddy water application); type: in vivo, Monochoria vaginalis; details: after 21 days, scale 0 to 100, 0 no effect, 100 complete control
From the text: Three plastic pots (ca. 16-cm diameter) per rate were partially filled with sterilized Tama silt loam soil comprising a 35:50:15 ratio of sand, silt and clay and 2.6% organic matter. Separate plantings for each of the three pots were as follows. Seeds from the U.S. of monochoria (Monochoria vaginalis), sedge, umbrella (small-flower umbrella sedge, Cyperus difformis), hardstem bulrush (Scirpus juncoides), and redstem (purple redstem, Ammannia coccinea), were planted into one 16-cm pot for each rate. Seeds from the U.S. of rice flatsedge (Cyperus iria), bearded sprangletop (Leptochloa fascicularis), one stand of 9 or 10 water seeded rice seedlings (Oryza sativa cv. ‘Japonica—M202’), and two stands of 3 or 4 transplanted rice seedlings (Oryza sativa cv. ‘Japonica—M202’) were planted into one 16-cm pot for each rate. Seeds from the U.S. of barnyardgrass (Echinochloa crus-galli), and late watergrass (Echinochloa oryzicola) were planted into one 16-cm pot for each rate. Plantings were sequential so that crop and weed species were at the 2.0 to 2.5-leaf stage at time of treatment.
Potted plants were grown in a greenhouse with day/night temperature settings of 30/27° C., and supplemental balanced lighting was provided to maintain a 16-hour photoperiod. Test pots were maintained in the greenhouse until test completion.
At time of treatment, test pots were flooded to 3 cm above the soil surface, treated by application of test compounds directly to the paddy water, and then maintained at that water depth for the duration of the test. Effects of treatments on rice and weeds were visually evaluated by comparison to untreated controls after 21 days. Plant response ratings, summarized in Table G, are based on a scale of 0 to 100 where 0 is no effect and 100 is complete control. A dash (-) response means no test result.

surinam grass [2] = assay: Test C postemergence; type: in vivo, Brachiaria decumbens; details: for Plant response rating (0 to 100), Surinam Grass: postemergence; for Plant response rating, Surinam Grass: Postemergence, scale 0 to 100 (0 no effect, 100 complete control)
From the text: as §1, §2

foxtail, green = assay: Test C postemergence; type: in vivo, Setaria viridis; details: for Plant response rating (0 to 100), Foxtail, Green: postemergence; for Plant response rating, Foxtail, Green: Postemergence, scale 0 to 100 (0 no effect, 100 complete control)
From the text: as §1, §2

Structure (SMILES)	Plant response rating (0 to 100), Canarygrass (canarygrass; 125 g ai/ha)	Plant response rating (0 to 100), Canarygrass (canarygrass; 250 g ai/ha)	Plant response rating, Canarygrass (canarygrass; 31 g ai/ha, 13 to 15 days)	Plant response rating, Canarygrass (canarygrass; 62 g ai/ha)	Surinam Grass plant response rating (surinam grass [1]; 62 g ai/ha)	Surinam Grass plant response rating (surinam grass [1]; 125 g ai/ha)	Surinam Grass plant response rating (surinam grass [1]; 250 g ai/ha)	Plant response rating, Surinam Grass (surinam grass [1])	Plant response rating (0 to 100), Cocklebur (cocklebur; 250 g ai/ha)	Plant response rating, Cocklebur (cocklebur; 31 g ai/ha, 13 to 15 days)	Plant response rating, Cocklebur (cocklebur; 62 g ai/ha)	Plant response rating (0 to 100), Bromegrass, Downy (bromegrass, downy; 125 g ai/ha)	Plant response rating (0 to 100), Bromegrass, Downy (bromegrass, downy; 250 g ai/ha)	Plant response rating, Bromegrass, Downy (bromegrass, downy; 31 g ai/ha, 13 to 15 days)	Plant response rating, Bromegrass, Downy (bromegrass, downy; 62 g ai/ha)	Kochia plant response rating (kochia; 62 g ai/ha)	Kochia plant response rating (kochia; 125 g ai/ha)	Kochia plant response rating (kochia; 250 g ai/ha)	Plant response rating, Kochia (kochia)	Plant response rating (0 to 100), Surinam Grass (surinam grass [2]; 125 g ai/ha)	other results
FC(F)(F)c1cnn(-c2ccccc2Oc2ncc(Cl)cn2)c1 [Compound 16]	60	80	10	30	100	100	100	25	80	50	55	5	5	0	5	80	85	100	50	40	Plant response rating, Monochoria (monochoria; 32 g ai/ha): 95; Plant response rating, Monochoria (monochoria; 64 g ai/ha): 95; Plant response rating, Monochoria (monochoria; 125 g ai/ha): 100; Plant response rating, Monochoria (monochoria; 250 g ai/ha): 100; Plant response rating (0 to 100), Surinam Grass (surinam grass [2]; 250 g ai/ha): 40; Plant response rating, Surinam Grass (surinam grass [2]; 31 g ai/ha, 13 to 15 days): 10; Plant response rating, Surinam Grass (surinam grass [2]; 62 g ai/ha): 15; Plant response rating (0 to 100), Foxtail, Green (foxtail, green; 125 g ai/ha): 30; Plant response rating (0 to 100), Foxtail, Green (foxtail, green; 250 g ai/ha): 100; Plant response rating, Foxtail, Green (foxtail, green; 31 g ai/ha, 13 to 15 days): 10; Plant response rating, Foxtail, Green (foxtail, green; 62 g ai/ha): 30
Fc1cnc(Oc2ccccc2-n2cc(Br)cn2)nc1 [Compound 10, 2-[2-(4-bromo-1H-pyrazol-1-yl)phenoxy]-5-fluoropyrimidine]	25	40	0	0	–	–	–	–	100	45	55	10	15	5	5	–	–	–	–	15	Plant response rating (0 to 100), Cocklebur (cocklebur; 125 g ai/ha): 55; Plant response rating (0 to 100), Surinam Grass (surinam grass [2]; 250 g ai/ha): 15; Plant response rating, Surinam Grass (surinam grass [2]; 31 g ai/ha, 13 to 15 days): 0; Plant response rating, Surinam Grass (surinam grass [2]; 62 g ai/ha): 10; Plant response rating (0 to 100), Foxtail, Green (foxtail, green; 125 g ai/ha): 0; Plant response rating (0 to 100), Foxtail, Green (foxtail, green; 250 g ai/ha): 30; Plant response rating, Foxtail, Green (foxtail, green; 31 g ai/ha, 13 to 15 days): 0; Plant response rating, Foxtail, Green (foxtail, green; 62 g ai/ha): 0
FC(F)(F)c1cnn(-c2ccccc2Oc2ncc(Br)cn2)c1 [Compound 18, 5-bromo-2-[2-[4-(trifluoromethyl)-1H-pyrazol-1-yl]phenoxy]pyrimidine]	–	–	–	–	30	100	100	20	–	–	–	–	–	–	–	60	80	98	15	–	Plant response rating, Monochoria (monochoria; 32 g ai/ha): 95; Plant response rating, Monochoria (monochoria; 64 g ai/ha): 95; Plant response rating, Monochoria (monochoria; 125 g ai/ha): 100; Plant response rating, Monochoria (monochoria; 250 g ai/ha): 100
Clc1cnc(Oc2ccccc2-n2cc(Br)cn2)nc1 [Compound 7, 2-[2-(4-bromo-1H-pyrazol-1-yl)phenoxy]-5-chloropyrimidine]	30	80	5	10	5	30	85	0	80	35	45	10	10	5	5	95	100	100	55	30	Plant response rating (0 to 100), Cocklebur (cocklebur; 125 g ai/ha): 55; Plant response rating, Surinam Grass (surinam grass [2]; 31 g ai/ha, 13 to 15 days): 15; Plant response rating, Surinam Grass (surinam grass [2]; 62 g ai/ha): 20; Plant response rating (0 to 100), Foxtail, Green (foxtail, green; 125 g ai/ha): 50; Plant response rating (0 to 100), Foxtail, Green (foxtail, green; 250 g ai/ha): 98; Plant response rating, Foxtail, Green (foxtail, green; 31 g ai/ha, 13 to 15 days): 0
